Reference: the supplement of paper PMC7341893

How the values were obtained:
Assay in all cases: growth (OD600) normalised to reference wells; higher = more growth / less inhibition
[1] = tested on: GPI2_HIP
Protocol: (§1)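 S. cerevisiae strains (wild type, SPT14 point-mutant knock-ins, HIP heterozygous and HOP homozygous deletion strains) were grown in rich medium in 96-well plates with 12-point serial dilutions of jawsamycin or clotrimazole (DMSO normalised to 2%). Growth was read as OD600 and normalised within each dilution series (NormOD, % growth). Wells set exactly to 100 are normalisation references and are left out.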

[2] = tested on: SPT14_HIP
Protocol: as §1

[3] = tested on: SPT14(V76F)
Protocol: as §1

[4] = tested on: HO_HIP
Protocol: as §1

[5] = tested on: SPT14(WT)
Protocol: as §1

[6] = tested on: SPT14(T114A)
Protocol: as §1

[7] = tested on: GPI1_HIP
Protocol: as §1

[8] = tested on: GPI15_HIP
Protocol: as §1

[9] = tested on: SPT14(H106Y)
Protocol: as §1

[10] = tested on: HO_HOP
Protocol: as §1

[11] = tested on: IRE1_HOP
Protocol: as §1

[12] = tested on: MUD2_HOP
Protocol: as §1

[13] = tested on: HAC1_HOP
Protocol: as §1

[14] = tested on: RLM1_HOP
Protocol: as §1

[15] = tested on: JIP3_HOP
Protocol: as §1

[16] = tested on: MID2_HOP
Protocol: as §1

Clc1ccccc1C(c1ccccc1)(c1ccccc1)n1ccnc1 [Clotrimazole]
growth [%]
Conditions | [1] | [2] | [3] | [4] | [5] | [6] | [7] | [8] | [9]
0.0599525 µM | – | – | – | – | 86.2 | 89.1 | – | – | 87.7
0.1259 µM | – | – | 101 | – | – | – | – | – | –
0.125900179 µM | 101.2 | 101.3 | – | 101 | 69.1 | 72 | 99.71 | 100.7 | 60.9
0.26439 µM | 99.573 | 99.746 | 99.4 | 98.3 | 8.87 | 33.3 | 99.45 | 99.95 | 6.75
0.55522 µM | 94.15 | 91.5 | 104 | 94.61 | 9.82 | 13.3 | 92.9 | 94.01 | 7.18
1.16596 µM | 14.5 | 11.7 | 97.7 | 8.24 | 6.88 | 12.5 | 10.1 | 7.93 | 4.48
2.44852 µM | 2.59 | 3.86 | 95.9 | 1.95 | 6.32 | 15.9 | 4.4 | 3.69 | 5.03
5.14189 µM | 1.15 | 1.8 | 98.2 | 0.55 | 4.16 | 12 | 1.82 | 1.3 | 3.41
10.79796998 µM | 0.0555 | 0.0343 | – | -0.231 | 3 | 3.16 | 0.134 | -0.36 | 1.98
10.798 µM | – | – | 4.41 | – | – | – | – | – | –
22.6757 µM | -0.447 | -0.803 | 0.641 | -0.622 | 3.43 | 3.52 | -0.448 | -0.813 | 2.09
47.619 µM | -0.447 | -0.679 | -1.36 | -0.564 | -0.421 | 0.134 | -0.6398 | -0.839 | -0.417
100 µM | 1.041 | 1.11 | -0.859 | 1.08 | -0.41 | 0.19 | 1.31 | 0.998 | -0.409

C[C@@H]1C[C@H]1/C=C/[C@@H]1C[C@H]1[C@@H]1C[C@H]1[C@@H]1C[C@H]1[C@@H]1C[C@H]1/C=C/C=C/C(=O)NC[C@H]1O[C@@H](N2CCC(=O)NC2=O)[C@H](O)[C@@H]1O [Jawsamycin]
Conditions | growth [%]
[1], 0.125900179 µM | 102
[1], 0.26439 µM | 78.2
[1], 0.55522 µM | 12.1
[1], 1.16596 µM | 0.957
[1], 2.44852 µM | -0.153
[1], 5.14189 µM | -0.208
[1], 10.79796998 µM | -0.242
[1], 22.6757 µM | 0.183
[1], 47.619 µM | 1.43
[1], 100 µM | 3.73
[2], 0.125900179 µM | 108
[2], 0.26439 µM | 89.878
[2], 0.55522 µM | 21.9
[2], 1.16596 µM | 2.72
[2], 2.44852 µM | 0.0973
[2], 5.14189 µM | -0.496
[2], 10.79796998 µM | -0.548
[2], 22.6757 µM | 0.0487
[2], 47.619 µM | 2.81
[2], 100 µM | 5.21
[3], 0.1259 µM | 101.9
[3], 0.26439 µM | 103
[3], 0.55522 µM | 104
[3], 1.16596 µM | 96.4
[3], 2.44852 µM | 100
[3], 5.14189 µM | 99
[3], 10.798 µM | 102
[3], 22.6757 µM | 102
[3], 100 µM | 74.6
[4], 0.125900179 µM | 100.4
[4], 0.26439 µM | 96.5
[4], 0.55522 µM | 29.9
[4], 1.16596 µM | 5.52
[4], 2.44852 µM | 1.29
[4], 5.14189 µM | 0.138
[4], 10.79796998 µM | -0.0442
[4], 22.6757 µM | 0.182
[4], 47.619 µM | 5.56
[4], 100 µM | 11.6
[5], 0.0599525 µM | 80.5
[5], 0.125900179 µM | 17.9
[5], 0.26439 µM | -3.32
[5], 0.55522 µM | -3.82
[5], 1.16596 µM | -3.97
[5], 2.44852 µM | -3.91
[5], 5.14189 µM | -3.92
[5], 10.79796998 µM | -3.59
[5], 22.6757 µM | -3.29
[5], 47.619 µM | -1.96
[5], 100 µM | -0.804
[6], 0.0599525 µM | 96.9
[6], 0.125900179 µM | 97.4
[6], 0.26439 µM | 92.3
[6], 0.55522 µM | 86.4
[6], 1.16596 µM | 61
[6], 2.44852 µM | -0.886
[6], 5.14189 µM | -4.03
[6], 10.79796998 µM | -3.95
[6], 22.6757 µM | -3.63
[6], 47.619 µM | -2.26
[6], 100 µM | 0.0855
[7], 0.125900179 µM | 95.1
[7], 0.26439 µM | 65.4
[7], 0.55522 µM | 3.38
[7], 1.16596 µM | 0.172
[7], 2.44852 µM | -0.0309
[7], 5.14189 µM | 0.123
[7], 10.79796998 µM | -0.0696
[7], 22.6757 µM | -0.0919
[7], 47.619 µM | 0.953
[7], 100 µM | 4.06
[8], 0.125900179 µM | 96
[8], 0.26439 µM | 83.9
[8], 0.55522 µM | 14.5
[8], 1.16596 µM | 0.707
[8], 2.44852 µM | -0.181
[8], 5.14189 µM | -0.594
[8], 10.79796998 µM | -0.329
[8], 22.6757 µM | -0.355
[8], 47.619 µM | 2.02
[8], 100 µM | 3.35
[9], 0.0599525 µM | 99.9
[9], 0.125900179 µM | 99.6
[9], 0.26439 µM | 96
[9], 0.55522 µM | 91.6
[9], 1.16596 µM | 65.8
[9], 2.44852 µM | 1.98
[9], 5.14189 µM | -4.83
[9], 10.79796998 µM | -5.01
[9], 22.6757 µM | -5
[9], 47.619 µM | -2.96
[9], 100 µM | 0.649
[10], 0.12590018 µM | 97
[10], 0.26439 µM | 84
[10], 0.55522 µM | 56
[10], 1.16596156 µM | 15.1
[10], 2.44852 µM | 4.54
[10], 5.14189 µM | 1.38
[10], 10.798 µM | 8.54
[11], 0.12590018 µM | 70.1
[11], 0.26439 µM | 14.2
[11], 0.55522 µM | 2.66
[11], 1.16596156 µM | -0.118
[11], 2.44852 µM | -0.241
[11], 5.14189 µM | -0.264
[11], 10.798 µM | 0.8
[12], 0.12590018 µM | 33.2
[12], 0.26439 µM | 0.873
[12], 0.55522 µM | -1.12
[12], 1.16596156 µM | -1.19
[12], 2.44852 µM | -0.498
[12], 5.14189 µM | -0.906
[12], 10.798 µM | -0.454
[13], 0.12590018 µM | 72.1
[13], 0.26439 µM | 23.7
[13], 0.55522 µM | 3.92
[13], 1.16596156 µM | 2.26
[13], 2.44852 µM | 0.418
[13], 5.14189 µM | 0.344
[13], 10.798 µM | 1.36
[14], 0.12590018 µM | 88
[14], 0.26439 µM | 2.22
[14], 0.55522 µM | -0.308
[14], 1.16596156 µM | -0.482
[14], 2.44852 µM | -0.568
[14], 5.14189 µM | -0.545
[14], 10.798 µM | -0.0157
[15], 0.12590018 µM | 64.5
[15], 0.26439 µM | -0.444
[15], 0.55522 µM | -0.584
[15], 1.16596156 µM | -0.756
[15], 2.44852 µM | -0.689
[15], 5.14189 µM | -0.655
[15], 10.798 µM | 0.0162
[16], 0.12590018 µM | 89.4
[16], 0.26439 µM | 0.809
[16], 0.55522 µM | -0.646
[16], 1.16596156 µM | -0.903
[16], 2.44852 µM | -0.918
[16], 5.14189 µM | -0.848
[16], 10.798 µM | -0.546
